The values below come from patent publication US20120028917A1, “Use Of N-(4-((3-(2-Amino-4-Pyrimidinyl)-2-Pyridinyl)Oxy)Phenyl)-4-(4-Methyl-2-Thienyl)-1-Phthalazinamine In The Treatment Of Antimitotic Agent Resistant Cancer” (Amgen Inc., priority 2009, published 2012).

Several values for one entry are separate records, joined by “and”; a condition that tells them apart may be missing. Identical values can stand only once. Marks after values point to notes of the source that are not given here.

In one assay the test system is A498. The assay is described as follows: Antiproliferative assay (ArrayScan VTi). Particulars: Homo sapiens; A498 (Kidney); 24 h treatment, then 48 h without compound. It counts as cell-based. The method, then:
(§1) Tumor cells were seeded in a Packard View 96-well plate in 100 μL of appropriate complete media at a density of 3000 or 5000 cells/well depending on the cell line growth kinetics (broadly defined as slow vs. fast). All dilutions were performed using Biomek FX workstation. The next day cells were treated with AMG 900 (11-point dose range 0.156 to 0.0003 μM) with a final DMSO concentration of 0.12% in media. After 24 hours, the media containing compound was removed and the cells were washed with complete media. The cells were then incubated in 100 μL of fresh complete media (without compound) for 48 hours. After 48 hours, the cells were fixed by adding 100 μL of fixation buffer to 100 μL of complete media. The cells were incubated at room temperature for 10 minutes. The fixation buffer was aspirated and the cells were then permeabilized in 100 μL wash buffer for 30 minutes at room temperature followed by the addition of 100 μL of DNA stain buffer and incubated at room temperature for 30 minutes in the dark. Next, the cells were washed with 100 μL of wash buffer and stored in 100 μL 1×PBS at 4 degrees Celsius until analysis. Cellular data was attained by scanning the 96-well plates on an ArrayScan VTi imaging system (Cellomics). Quantification of individual cell nuclear area and intensity was performed based on Hoechst 33342 DNA dye fluorescence. A threshold on the nuclear area based on the DMSO-treated control well was set to quantify the number of normal size nuclei from nuclear debris and polyploidy cells. This threshold value was applied to enumerate the number of normal nuclei in six image fields/well using a magnification of 10×. The dose-concentration curves and EC50 values were calculated using a 4-parameter equation.

Another assay deals with CAKI-1. The assay is described as follows: Antiproliferative assay (ArrayScan VTi). The class given is cell-based. Particulars: Homo sapiens; CAKI-1 (Kidney); 24 h treatment, then 48 h without compound. The method, then: as §1
The subject of the next assay is MCF7-p53+. The assay is described as follows: Antiproliferative assay (ArrayScan VTi). It counts as cell-based. Particulars: Homo sapiens; MCF7-p53+ (Breast); 24 h treatment, then 48 h without compound. The protocol: as §1
Another assay deals with MCF7-p53−. The assay is described as follows: Antiproliferative assay (ArrayScan VTi). Particulars: Homo sapiens; MCF7-p53− (Breast); 24 h treatment, then 48 h without compound. It counts as cell-based. The protocol:
as §1

For the next assay, the system named is MDA-MB-231. The assay is described as follows: Antiproliferative assay (ArrayScan VTi). It counts as cell-based. Particulars: Homo sapiens; MDA-MB-231 (Breast); 24 h treatment, then 48 h without compound. The protocol:
as §1

The next assay concerns PC3. The assay is described as follows: Antiproliferative assay (ArrayScan VTi). The class given is cell-based. Particulars: Homo sapiens, PC-3; PC3 (Prostate); 24 h treatment, then 48 h without compound. The method, then: as §1
A further assay concerns SK-MEL-2. The assay is described as follows: Antiproliferative assay (ArrayScan VTi). It counts as cell-based. Particulars: Homo sapiens; SK-MEL-2 (Skin); 24 h treatment, then 48 h without compound. The protocol: as §1
The next assay relates to SK-OV-3. The assay is described as follows: Antiproliferative assay (ArrayScan VTi). Particulars: Homo sapiens; SK-OV-3 (Ovarian); 24 h treatment, then 48 h without compound. The class given is cell-based. The method, then:
as §1

A further assay has as its system SNU449. The assay is described as follows: Antiproliferative assay (ArrayScan VTi). It counts as cell-based. Particulars: Homo sapiens, SNU-449; SNU449* (Liver), paclitaxel-resistant; 24 h treatment, then 48 h without compound. The method, then:
as §1

A further assay relates to SW480. The assay is described as follows: Antiproliferative assay (ArrayScan VTi). It counts as cell-based. Particulars: Homo sapiens; SW480 (Colon); 24 h treatment, then 48 h without compound. The method, then: as §1
Another assay relates to T47D. The assay is described as follows: Antiproliferative assay (ArrayScan VTi). The class given is cell-based. Particulars: Homo sapiens; T47D (Breast); 24 h treatment, then 48 h without compound. The method, then:
as §1

The test system of another assay is 769P. The assay is described as follows: Cellular EC50, additional cell lines (Table 6-B). The class given is cell-based. Particulars: Homo sapiens, Kidney, P-gp+. The protocol:
(§2) All high-content cell assays were performed on an ArrayScan VTi HCS Reader (Cellomics). Tumor cell lines were treated with AMG 900, AZD1152, MK-0457, or PHA-739358 (concentration range varied based on potency). The cells were prepared for intracellular staining with an anti-p-histone H3 Ser^10 antibody as previously described (1). Detection was performed with an anti-rabbit IgG-alexa-568 antibody and DAPI. The cellular levels of p-histone H3 were analyzed using Target Activation V2 algorithm (Cellomics) to determine the percentage of positive cells. For the imaging assays, the concentration-response curves and corresponding IC50 and EC50 values were calculated using the percentage of cells affected versus the DMSO control.
(§3) Tumor cells were treated with AMG 900, AZD1152, MK-0457, or PHA-739358 (range concentration varied based on potency) for 24 hours and processed for cell-cycle analysis (DNA staining only) as previously described (1). Cells were analyzed on a LSRII flow cytometer using BD FACS Diva software. The concentration-response curves and corresponding EC50 values were calculated using the percentage of cells with ≧4N DNA content versus the DMSO control.

The test system of another assay is SNU499. The assay is described as follows: Cellular EC50, additional cell lines (Table 6-B). The class given is cell-based. Particulars: Homo sapiens, Liver, P-gp+. The method, then:
as §2, §3

In another assay the test system is HCT-15 (MDR) xenograft. The assay is described as follows: Xenograft tumor growth inhibition (Example 7). The class given is in vivo, mice. Particulars: Colon, oral 15 mg/kg b.i.d. 2 consecutive days per week or 3 mg/kg b.i.d. every day, 3 weeks. The protocol: (§4) The in-vivo effect of AMG 900 on tumor growth was further evaluated in a panel of human xenografts from five different tumor types (breast, colon, lung, pancreatic, and uterine), including three MDR xenograft models. Mice bearing established tumors were orally administered AMG 900 at 15 mg/kg b.i.d. for 2 consecutive days per week for 3 weeks or at 3 mg/kg b.i.d. every day for 3 weeks. The maximum percentage of tumor growth inhibition (TGI) is reported, in Table 7 below, for each xenograft model. The percentage of TGI was calculated as the difference between the change in vehicle-treated control and AMG 900-treated tumor volumes during the study period.

The next assay concerns MDA-MB-231 xenograft. The assay is described as follows: Xenograft tumor growth inhibition (Example 7). It counts as in vivo, mice. Particulars: MDA-MB-231, Breast; oral 15 mg/kg b.i.d. 2 consecutive days per week or 3 mg/kg b.i.d. every day, 3 weeks. The protocol:
as §4

The next assay relates to NCI-H460 xenograft. The assay is described as follows: Xenograft tumor growth inhibition (Example 7). It counts as in vivo, mice. Particulars: NCI-H460, Lung; oral 15 mg/kg b.i.d. 2 consecutive days per week or 3 mg/kg b.i.d. every day, 3 weeks. The protocol:
as §4

The subject of assay [1] is NCI-H460-PTX (MDR) xenograft. The assay is described as follows: Xenograft tumor growth inhibition (Example 7). The class given is in vivo, mice. Particulars: Lung, oral 15 mg/kg b.i.d. 2 consecutive days per week or 3 mg/kg b.i.d. every day, 3 weeks. The method, then:
as §4

On to `Cc1csc(-c2nnc(Nc3ccc(Oc4ncccc4-c4ccnc(N)n4)cc3)c3ccccc23)c1` [AMG 900, N-(4-((3-(2-amino-4-pyrimidinyl)-2-pyridinyl)oxy)phenyl)-4-(4-methyl-2-thienyl)-1-phthalazinamine], for which the EC50 in the assay with A498 amounted to 1 nM; in the assay with CAKI-1 it was 1 nM; in the assay with MCF7-p53+, 1 nM; with MCF7-p53−, 3 nM; in the assay on MDA-MB-231, 2 nM; in the assay with PC3, 2 nM. For the same molecule, the EC50 stood at 2 nM with SK-MEL-2; 2 nM in the assay on SK-OV-3; 2 nM with SNU449; 2 nM with SW480; 5 nM in the assay with T47D; 4 nM in the assay with 769P. In addition, in the assay on SNU499, the 50% effective concentration (EC50) amounted to 2 nM. Besides, the “Maximum TGI (%)” value with HCT-15 (MDR) xenograft is 50* %; in the assay with MDA-MB-231 xenograft, 82** %; with NCI-H460 xenograft, 85** %; in assay [1], 66% and 65** %.

One may read the EC50 as the midpoint of the concentration-response curve. Read a low EC50 as greater potency.
